Source: PubChem BioAssay AID489022 (Sanford-Burnham Center for Chemical Genomics, 2010)
Activity calls are given as the source filed them. The rule behind the calls is not given here.

System: HEK-293T NF-kB luciferase reporter, luminescence counterscreen
Experiment: inhibitors of NF-kB luciferase reporter, HEK-293T, dose response, counter-screen for BCR NF-kB inhibitor project, luminescence, B-cell screen hits (AID 489022)

Structure (SMILES)	IC50
COc1ccc(CC(=O)Nc2cccc(-c3ccc4nnc(C)n4n3)c2)cc1	41.8 µM (inactive)
O=C(O)CCn1c(O)c(C=C2N=c3ccccc3=N2)sc1=S	70.8 µM (inactive)
CCC(CC)C(=O)Nc1ccc(Sc2ccc([N+](=O)[O-])cc2)cc1	13.7 µM
Cc1cc(C)cc(N2C(=O)NC(=O)/C(=C\c3cccn3-c3ccccc3)C2=O)c1	> 80 µM (inactive)
CCOc1ccc(-c2nc(CSCC(=O)NC3CC3)c(C)o2)cc1	> 80 µM (inactive)
CC1CC(C)(C)Nc2ccc(OC(=O)c3ccco3)cc21 (stereo not given)	8.89 µM
CCN(CC)CCOC(=O)c1ccc(NC(=O)COc2cc(=O)n(CC)c3ccccc23)cc1	43.8 µM (inactive)
COc1ccc(NS(=O)(=O)c2cc(NC(=O)c3cc(=O)c4ccccc4o3)ccc2OC)cc1	> 80 µM (inactive)
Cn1nnnc1Sc1ncnc2scc(Br)c12	4.26 µM
CCOC(=O)N1CCN(c2ncnc3c2[nH]c2ccc(OC)cc23)CC1	20.1 µM (inactive)
CC(C)CCNC(=O)CCCOc1cc(=O)n(C)c2ccccc12	60.7 µM (inactive)
CC1(C)CC2CC(C)(CN2S(=O)(=O)c2ccc(C(=O)Nc3ccc(S(=O)(=O)N4CCOCC4)cc3)cc2)C1 (stereo not given)	0.68 µM
COC(=O)CSc1nnc(-c2sc3ccccc3c2Cl)o1	7.24 µM
C=CCOC(=O)COc1cc(C)cc2oc(=O)c3c(c12)CCC3	> 80 µM (inactive)
O=C(CN1C(=O)c2ccccc2S1(=O)=O)c1ccccc1Cl	7 µM
COc1cc(-c2cc(=O)c3c(O)c(OC)c(OC)c(OC)c3o2)cc(OC)c1OC	> 80 µM (inactive)
CCc1sc(C(=O)Nc2cccc(-n3cnnn3)c2)cc1C	> 80 µM (inactive)
O=[N+]([O-])c1ccc(Sc2cc[n+]([O-])c3ccccc23)c([N+](=O)[O-])c1	> 80 µM (inactive)
COc1ccc(C(C(=O)NC2CCCCC2)N(C(=O)CCl)c2ccc(OC)cc2)cc1 (stereo not given)	15.2 µM
O=C(Nc1ccccc1C(=O)Nc1nnc(C(F)(F)F)s1)c1ccccc1	4.36 µM
O=C(N/N=C/c1ccc(Cl)cc1Cl)c1ccc(-n2cnnn2)cc1	> 80 µM (inactive)
CNC(=O)c1cccn(Cc2ccc(C(F)(F)F)cc2)c1=O	35.5 µM (inactive)
Cn1c(=O)n(C)c2cc(/C=C3/NC(=O)N(Cc4ccccc4)C3=O)ccc21	> 80 µM (inactive)
CC(=C\c1ccccc1)/C=C1/SC(=O)N(CCCC(=O)Nc2ccc(C(=O)O)cc2)C1=O	> 80 µM (inactive)

Structure (SMILES)	IC50
COc1ccc(OCc2cccc(C(=O)Nc3cc(C)on3)c2)cc1	50.6 µM (inactive)
OCCN1CCN(C(=S)c2ccc(-c3ccccc3)cc2)CC1	31.6 µM (inactive)
COc1ccc(OCc2cccc(C(=O)Nn3cc([N+](=O)[O-])cn3)c2)cc1	11.9 µM
COc1cc(-c2nc3ccc(N4CCN(C)CC4)cc3[nH]2)cc(OC)c1OC	> 80 µM (inactive)
N=c1c2c(n(Cc3ccc(Cl)c(Cl)c3)c3c1CCC3)CCCC2	2.35 µM
O=C(CSCCO)Nc1ccc(C23CC4CC(CC(C4)C2)C3)cc1	3.86 µM
O=C(Nc1cccc(Oc2ccc3c(c2)C(=O)NC3=O)c1)c1cccs1	28.8 µM (inactive)
COC(=O)c1cc(NC(=O)Nc2cc(OC)ccc2OC)cc(C(=O)OC)c1	> 80 µM (inactive)
CCN(C(=O)CN1C(=O)NC(c2ccccc2)(c2ccc(C)c(C)c2)C1=O)C1CCCCC1 (stereo not given)	26.6 µM (inactive)
COc1cc(C2C(C#N)=C(N)Oc3cc(N)ccc32)cc(OC)c1OC (stereo not given)	> 80 µM (inactive)
Cc1cc(C)c2nc(NC(=O)C3CSC4(C)CCC(=O)N34)sc2c1 (stereo not given)	> 80 µM (inactive)
O=C(CCCN1C(=O)/C(=C/c2ccccc2Cl)SC1=S)NNC(=O)c1ccncc1	12.7 µM
CCOC(=O)Cc1ccc(NC(=O)c2ccc(C(C)(C)C)cc2)cc1	1.04 µM
Cc1cc(N(C)C)ccc1N=Nc1ccc(N)cc1	64.3 µM (inactive)
COc1ccc(C2=NCc3nnc(C)n3-c3ccc(Cl)cc32)cc1Cl	> 80 µM (inactive)
CCN(CC)S(=O)(=O)c1ccc(N2CCOCC2)c(NC(=O)c2[nH]c(C)c(C(C)=O)c2C)c1	5.92 µM
COC(=O)c1c(NC(=O)c2cccc([N+](=O)[O-])c2)sc(C(N)=O)c1C	> 80 µM (inactive)
CCN(CC)C(=O)c1ccc(S(=O)(=O)Cc2ccc(C)cc2)c([N+](=O)[O-])c1	34.7 µM (inactive)
COc1ccc(/C=C2/SC(=S)N(CCCC(=O)Nc3ccc(O)cc3)C2=O)cc1	> 80 µM (inactive)
COc1ccc(Cc2nc(-c3ccc(NC(=O)c4cccnc4)cc3)no2)cc1	> 80 µM (inactive)
CN(C)CCCN=Cc1c(-c2ccccc2)[nH]n(-c2nc3ccccc3s2)c1=O	> 80 µM (inactive)
COc1ccc(-c2csc3nc(-c4cccnc4)nc(N4CCC(C(N)=O)CC4)c23)cc1OC	9.06 µM
Cc1nc2ccccn2c1C(=O)/C=C/c1cccc([N+](=O)[O-])c1	52.6 µM (inactive)
COc1ccc(-c2noc(CCCC(=O)Nc3ccc(C(N)=O)cc3)n2)cc1	27.3 µM (inactive)

Structure (SMILES)	IC50
CCn1c(=O)cc(OCC(=O)NCc2ccc(C)o2)c2ccccc21	> 80 µM (inactive)
CC(C)(C)c1ccc(-c2nnc(SCC(=O)NC3CC3)o2)cc1	63.1 µM (inactive)
CCOc1ccc(-c2nnc(SCC(=O)Nc3cc(C)on3)o2)cc1	> 80 µM (inactive)
Cc1cc(=O)[nH]c2c(C)cc(S(=O)(=O)N3CCCCC3)cc12	> 80 µM (inactive)
CCc1cccc(NC(=O)c2ccc(CNc3c(N4CCCC4)c(=O)c3=O)cc2)c1	> 80 µM (inactive)
COc1ccc(-c2ccc(OC)c([C@H]3[C@H]4C=CC[C@@H](C)[C@@H]4C(=O)N3Cc3ccccc3)c2)cc1C	> 80 µM (inactive)
COc1ccc(C(=O)N/N=C/c2sc(N3CCOCC3)nc2-c2ccccc2)cc1OC	14 µM
CCn1c(=O)c2cc(C(=O)NC(C)C)sc2c2ccccc21	> 80 µM (inactive)
C#CCN(Cc1ccccc1)S(=O)(=O)C=C	51.3 µM (inactive)
CCOC(=O)Cc1csc(NC(=S)NC(=O)c2ccc(Cl)cc2)n1	> 80 µM (inactive)
CC1CCC/C=C/C2CC(O)CC2C(O)/C=C/C(=O)O1 (stereo not given)	0.53 µM
CCCN1C(=O)/C(=C/c2c(N3CCNC(=O)C3CC(=O)OCC)nc3c(C)cccn3c2=O)SC1=S (stereo not given)	14.5 µM
CCCCCC/C=C/c1ccc(OC)c([C@H]2[C@H]3C=CC[C@@H](C)[C@@H]3C(=O)N2Cc2ccccc2)c1	> 80 µM (inactive)
CN1C(=O)c2cccc3c(S(=O)(=O)Nc4ccccc4F)ccc1c23	69.7 µM (inactive)
O=C(O)CCSc1nc2ccccc2s1	2.07 µM
CCCNC(=O)c1ccc(N2CCC3(CC2)CC(c2cccc(Br)c2)=NO3)c(NC(=O)c2ccc(Cl)c([N+](=O)[O-])c2)c1	> 80 µM (inactive)
Cc1ccc2nc(NC(=O)CSCC(=O)OCC(=O)c3ccc(Br)cc3)sc2c1	1.82 µM
CC1=CC(C)(C)Nc2ccc(OC(=O)CN3C(=O)CCC3=O)cc21	11.1 µM
O=C(CCl)Nc1ccccc1Sc1ccccc1	37.8 µM (inactive)
O=C(CCCN1C(=O)S/C(=C\c2ccccc2)C1=O)NNC(=O)c1ccccc1O	1.64 µM
CCc1ccc(/C=C2\SC(=S)N(CCC(=O)NC3=NCCS3)C2=O)cc1	> 80 µM (inactive)
Cc1ccc(/C=C2\SC(=S)N(CCC(=O)NNC(=O)c3ccncc3)C2=O)cc1	> 80 µM (inactive)
